# Data reported in publication PMC1190152, “Archazolid and apicularen: Novel specific V-ATPase inhibitors” (BMC Biochemistry, 2005).
# Columns and labels:
# [1] = tested on: L-929; experiment: Growth inhibition of L-929 cells (MTT assay); assay type: cell-based; conditions: Mus musculus, L929, 120 h; L-929, murine connective tissue; MTT after 5 days
# Experimental: (§1) Cell lines were obtained from the German Collection of Microorganisms and Cell Cultures (DSMZ). Cell lines 3Y1 and M1 (embryonal fibroblasts from 129/Ola × C57BL/6 mice, [30]) were a generous gift from Dr. S. Miyamoto, Fukoka, Japan, and Dr. P. F. Mühlradt, Braunschweig, Germany. All cell lines were cultivated under conditions recommended by the supplier. Growth inhibition was measured in microtiterplates. Aliquots of 120 μl of the suspended cells (50,000/ml) were given to 60 μl of a serial dilution of the inhibitor. After 5 days, growth was determined using the MTT assay.
# [2] = tested on: 3Y1; experiment: Growth inhibition of 3Y1 cells (MTT assay); assay type: cell-based, rat; conditions: 120 h; 3Y1, rat embryogenic fibroblast cell line; MTT after 5 days; read-out: IC50 growth inhibition
# Experimental: as §1
# [3] = tested on: KB-V1; experiment: Growth inhibition of multidrug-resistant KB-V1 cells (MTT assay), with or without verapamil; assay type: cell-based; conditions: 120 h; KB-V1, mdr human cervix carcinoma; without verapamil; MTT after 5 days
# Experimental: The novel antibiotics archazolids and apicularens (Fig. 1) were checked for their impact on the cell growth of a variety of mammalian cell lines from different tissues (Tab. 1). […] Apicularen B was the only exception, with an average IC50 value two orders of magnitude higher. Growth inhibition of the multidrug-resistant cell line KB-V1 was also measured in the presence of verapamil. […] The data in Tab 1. show, that unlike the archazolids, the apicularens are poor substrates of Pgp. To visualize the impact of the antibiotics, PtK2 (potoroo kidney) cells were incubated with the inhibitors and stained for intact acidic lysosomes (Fig. 2). […] The same observation was made with KB-3-1 cells (data not shown). […] Unlike the cell lines listed in Tab. 1, the growth of PtK2 cells was not completely stopped. The same holds true for A-498 cells (human kidney carcinoma). Both cell lines grow epithelial-like. There was obviously a differential reaction of cell lines to V-ATPase inhibitors. For A-431 cells (human epidermoid carcinoma) a dependence on the expression of the EGF receptor was shown.
# as §1
# [4] = tested on: M1; experiment: Growth inhibition of M1 cells (MTT assay); assay type: cell-based, mouse; conditions: 120 h; M1, mouse embryogenic fibroblast cell line; MTT after 5 days; read-out: IC50 growth inhibition
# Experimental: as §1
# [5] = target: T1, V-ATPase holoenzyme from the midgut of the tobacco hornworm (Manduca sexta, UniProt P31403); experiment: Inhibition of purified V-ATPase holoenzyme activity; assay type: biochemical
# T1 construct: purified V-ATPase holoenzyme from the midgut of the tobacco hornworm; from tissue; host or cells: midgut of fifth instar Manduca sexta larvae
# Experimental: The V-ATPase holoenzyme was purified as published elsewhere. Preparation of highly purified membranes containing Na^+/K^+-ATPase from pig kidney followed the protocol of Jørgensen with the three main steps of differential centrifugation, incubation with SDS in the presence of ATP and sucrose density gradient centrifugation in a fixed angle rotor, and led to a specific enzyme activity which was in the same range as that reported by the authors. The resulting sample was stored frozen at -20°C. To prepare crude membrane extracts, the hearts of three mice were washed three times with an ice-cold buffer of pH 8.1 consisting of 0.25 M sucrose, 5 mM Tris-HCl, 5 mM EDTA, and 10 mM Pefabloc SC (Biomol), homogenized in 5 ml of this buffer and centrifuged at 4°C for 25 min at 233,000 × gmax in a fixed angle rotor. The resulting pellet was resuspended in 5 ml of a buffer of pH 7.5, consisting of 5 mM Tris-MOPS (3-morpholinopropanesulfonic acid), 10 mM NaCl, 10 mM Pefabloc SC, 9.6 mM 2-mercaptoethanol, 0.53 mM EGTA and 0.1 % Triton X-100. After an aliquot for protein determination had been taken, 10% bovine serum albumin (final concentration) was added to the suspension which was then stored on ice until the activity assays were run. Beef heart mitochondria were isolated by differential centrifugation, following the protocol of Smith by using a blender to homogenize the heart mince. The initial homogenization buffer consisted of 250 mM saccharose, 10 mM KH2PO4, 10 mM Tris, 2 mM EGTA, 2 mM MgCl2, pH 7.4, and further isolation procedures were carried out in the same medium without EGTA [24]. Submitochondrial particles were obtained by ultrasonic treatment of the mitochondria.
# Standard V-ATPase assays with a final volume of 160 μl and a pH of 8.1 consisted of 3–4 μg of protein, 50 mM Tris-MOPS, 3 mM 2-mercaptoethanol, 1 mM MgCl2, 20 mM KCl, 0.003% C12E10, 20 mM NaCl, and 3 mM Tris-HCl. After 5 min of pre-incubation at 30°C with or without inhibitors, 1 mM Tris-ATP was added and after incubation for 2 min the reaction was stopped by placing the tube in liquid nitrogen. Assays using Na^+/K^+-ATPase were performed in 160 μl at pH 7.5 and contained 0.5 μg of protein, 50 mM Tris-MOPS, 5 mM imidazole, 0.2 mM EDTA, 4 mM MgCl2, 20 mM KCl and 100 mM NaCl. After 5 min of pre-incubation at 37°C with or without inhibitors, 3 mM Tris-ATP was added and after 1 min of incubation the reaction was stopped by placing the tube in liquid nitrogen. […] After 5 min of pre-incubation at 30°C with or without inhibitors, 1 mM Tris-ATP was added and after an incubation time of 10 min the reaction was stopped by placing the tubes in liquid nitrogen. ATPase assays with submitochondrial particles from beef heart were performed in a final volume of 1 ml and a pH of 8.0. The samples contained 9–12 μg protein, 50 mM Tris, 50 mM KCl and 2.5 mM MgCl2. After 5 min of preincubation with or without inhibitors, 5 mM ATP was added, and after an additional incubation time of 15 min the reaction was stopped by the addition of 0.4 ml of 20 % TCA.
# Inorganic phosphate produced in the assays of V-ATPase, Na^+/K^+-ATPase and mouse heart F-ATPase was measured according the protocol of Wieczorek et al., while the determination of inorganic phosphate produced in the assays of beef heart F-ATPase followed the method of Fiske and Subarrow using ascorbic acid as reducing agent.
# Fifth instar larvae of M. sexta (Lepidoptera, Sphingidae), weighing 6–8 g, were reared under long day conditions (16 h of light) at 27°C using a synthetic diet modified according to Bell et al.
# [6] = tested on: A-594; design: method as in PMID 10048565; conditions: A-594, human lung carcinoma; ref [15]; read-out: IC50 growth inhibition; cited from earlier work
# [7] = tested on: bacterial growth; conditions: ref [11],[15],[17]; cited from earlier work
# T1 sequence (P31403 whole entry): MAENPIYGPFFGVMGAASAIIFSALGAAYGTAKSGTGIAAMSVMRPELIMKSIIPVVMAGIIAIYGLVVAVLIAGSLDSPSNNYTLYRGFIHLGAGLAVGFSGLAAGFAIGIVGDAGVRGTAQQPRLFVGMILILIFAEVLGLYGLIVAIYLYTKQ
smiles,measurement,setting,value
CC/C=C\C=C/C(=O)N/C=C/CC1CC2CC(O[C@@H]3O[C@H](CO)[C@@H](O)[C@H](O)[C@H]3NC(C)=O)CC(Cc3cccc(O)c3C(=O)O1)O2 (some centres unmarked) [apicularen B],IC50,[1],0.62 µM
same,IC50,[2],0.31 µM
same,IC50,[3],1.6 µM
same,IC50,[4],0.19 µM
same,"IC50 per mg of protein, purified V-ATPase",[5]; equivalent of the half-maximal concentration,~2.4 nmol per mg of protein
same,IC50,"[5]; purified holoenzyme, 3–4 μg protein, pH 8.1, 30°C, read-out: half-maximal inhibition concentration of purified V-ATPase",~0.06 µM
same,IC50,[6],0.31 µM
same,inhibition of bacterial growth,[7],failed to inhibit
